# Experimental data reported in patent US20080050413A1, “Medical stent provided with a combination of melatonin and paclitaxel” (priority 2006, published 2008).
# Where “and” joins values, the source holds several entries; their conditions need not be identical. Equal entries are not always repeated.
# Key:
# [1] = test system: human coronary artery smooth muscle cells (HCASMC); assay: CellTiter 96 One solution (MTS) cell proliferation assay, HCASMC; format: cell-based
# Method: (§1) Human coronary artery endothelial cells (HCAEC) were purchased from Cambrex and human coronary artery smooth muscle cells (HCASMC) were purchased from Promocell. Cells were used for experiments between passage 4 and passage 12. Both cell types were cultured in their respective complete culture medium with the following composition: HCASMC: Smooth Muscle Cell Growth Medium 2: Epidermal Growth Factor (EGF), basic Fibroblast Factor (FGF), Insulin, Fetal Calf Serum (FCS) 5%, Amphotericin B, Gentamicin. Medium was changed every other day. 24 hours prior to growth factor stimulation, the medium was replaced by fresh culture medium, however, without growth factors to increase the cellular sensitivity to the subsequent growth factor stimulation. Subconfluent HCAEC were stimulated with 10 ng/ml of VEGF-A, whereas subconfluent HCASMC were stimulated with 10 ng/ml of PDGF-BB. Likewise, both cell types were stimulated with 25% of human serum (final concentration). All proliferation and cytotoxicity experiments were performed on cells cultured on 96 well plates (Costar). The CellTiter 96 One solution cell proliferation assay from Promega was used to assess cell proliferation in a 96-well plate. This assay makes use of the MTS tetrazolium compound as a cellular substrate. MTS is bioreduced by living cells into a colored formazan product that is soluble in tissue culture medium and absorbs light at 490 nm. The quantity of formazan produced is directly proportional to the number of living cells in culture. After 24 h stimulation, 20 μl of MTS reagent was added to the cells cultured in 100 μl of medium per well. After 2 to 4 hours of incubation at 37° C., 5% CO2, the absorbance at 490 nm was recorded using a 96-well plate reader (Tecan).
# [2] = test system: human coronary artery endothelial cells (HCAEC); assay: CellTiter 96 One solution (MTS) cell proliferation assay, HCAEC; format: cell-based
# Method: as §1, with “HCAEC: Endothelial” for “HCASMC: Smooth Muscle Cell”, “Media-2 MV: hEGF, Hydrocortisone, GA-1000, FBS” for “Medium 2: Epidermal Growth Factor (EGF), basic Fibroblast Factor (FGF), Insulin, Fetal Calf Serum (FCS)”, “VEGF, hFGF-B, R3-IGF-1, Ascorbic Acid” for “Amphotericin B, Gentamicin.”
# HCAEC [3] = assay: CytoTox-ONE LDH release cytotoxicity assay, HCAEC; format: cell-based, human; conditions: 48 hours, Melatonin 0.2 to 6 mM
# Method: (§2) Cytotoxicity experiments were performed with cells cultured on 96-well plates. The CytoTox-ONE™ Assay from Promega was used to assess the membrane integrity of cells. This test is based on a fluorometric method to estimate the number of non viable cells present in multiwell plates by measuring the release of lactate dehydrogenase (LDH) from cells with damaged membranes. Subconfluent cells were incubated for 48 hours with Melatonin at concentrations between 0.2 and 6 mM. During the 48 h Melatonin incubation, the medium was not changed to avoid removal of any detached cells. As a positive control three wells of untreated cells were incubated with lysis buffer (delivered with the assay) before measurement. At the end of the Melatonin incubation period, a volume of CytoTox-ONE reagent equal to the volume of cell culture medium present in each well was added. After 10 min incubation at 22° C. (room temperature), 50 μl of stop solution was added per 100 μl of CytoTox-ONE reagent added. The plate was shaken for 10 seconds and fluorescence was recorded with an excitation wavelength of 560 nm and an emission wavelength of 590 nm (Spectramax M2 fluorescence plate reader, Molecular devices).
# HCASMC = assay: CytoTox-ONE LDH release cytotoxicity assay, HCASMC; format: cell-based, human; conditions: 48 hours, Melatonin 0.2 to 6 mM
# Method: as §2
# [4] = test system: HUVEC (Human Umbilical Vein Endothelial Cells); assay: [3H]-thymidine incorporation, HUVEC stimulated with VEGF-A; format: cell-based; conditions: VEGF A 10 ng/ml 24 hours
# Method: To investigate, whether melatonin has similar effects on other cell types, HUVEC (Human Umbilical Vein Endothelial Cells, Promocell) were tested. HUVEC were cultured in the corresponding complete medium (Endothelial Cell Growth Medium: ECGS/H 0.4%, Fetal Calf Serum 2%, Epidermal Growth Factor 0.1 ng/ml, Hydrocortisone 1 μg/ml, basic Fibroblast Factor 1 ng/ml, Amphotericin B 50 ng/ml, Gentamicin 50 μg/ml). 24 hours prior to stimulation, the medium was replaced by a medium containing 2% serum and antibiotics, but devoid of the other complements. Then, HUVEC were stimulated with 10 ng/ml of VEGF-A for 24 hours. HUVEC were incubated for 48 hours with Melatonin and stimulated for 24 hours with VEGF-A at 10 ng/ml. After 24 hours of stimulation, the cells were incubated with radioactive [^3H]-thymidine. Two hour later, the medium was removed and cell-bound DNA was precipitated using 5% TCA (Trichloroacetic acid). Then, [^3H]-thymidine incorporation was measured using a beta-counter.
# HCAEC [5] = assay: Chemotaxis towards VEGF-A, modified Boyden chamber, HCAEC; format: cell-based, human; conditions: 2 mM Melatonin for 48 hours; VEGF-A 10 ng/ml; migration 4 hours; performed only once
# Method: Chemotaxis experiments were performed using a modified Boyden chamber. The apparatus consists of two multi-well chambers separated by a filter containing pores of uniform size. A solution containing a chemokine or chemotactic factor is placed in the lower/bottom chamber and a cell suspension is placed in the upper chamber. Cells can migrate through the pores across the filter and towards the chemoattractant in the lower chamber. Cells that migrated across the filter and remain attached to the lower side of the membrane are counted. Data are expressed in terms of migration index: the number of cells that migrated in response to agonist stimulation compared to the number of cells that migrated randomly, i.e. to medium only. Chemotaxis experiments so far were only performed with HCAEC. For these cells a 25×80 mm polycarbonate filter, […] (PVP) free was used (Whatman) with a pore size of […]. Before migration the filter was coated with collagen. Endothelial cells were incubated with Melatonin at 2 mM prior to and during migration. […] Cells were stimulated with VEGF-A at 10 ng/ml. Cells were allowed to migrate for 4 hours at 37° C./5% CO2. At the end of migration, cells were fixed on the filter, stained with Giemsa and counted using a regular optic microscope.
structure (smiles),measurement,setting,value
"COc1ccc2[nH]cc(CCNC(C)=O)c2c1 [Melatonin, N-acetyl-5-methoxytryptamine]",effect on number of smooth muscle cells,"[1]; 1 mM Melatonin, 24 hours pre-treatment, PDGF BB 10 ng/ml 24 h",significant decrease in the number of smooth muscle cells
same,concentration at which proliferation is strongly inhibited,[1]; HCASMC,higher than 0.2 mM
same,effect on proliferation of HCASMC,"[1]; Melatonin up to 0.1 mM, PDGF BB 10 ng/ml 24 h",no significant effect
same,concentration of maximal inhibitory effect,[1]; tested up to 10 mM,5 mM
same,concentration at which proliferation is strongly inhibited,[2]; HCAEC,higher than 0.2 mM
same,effect on cell number,[2]; Melatonin between 1 mM and 6 mM,dramatic decrease in cell number
same,concentration of maximal effect,[2]; tested 1 μM to 6 mM,3 mM and 6 mM
same,sensitivity of HCAEC to Melatonin,[2]; up to 0.1 mM Melatonin,not sensitive
same,cytotoxic effect (LDH release),HCAEC [3],does not induce any detectable cytotoxic effect
same,cytotoxic effect (LDH release),HCASMC,does not induce any detectable cytotoxic effect
same,effect on HUVEC ([3H]-thymidine incorporation),"[4]; 0.2 mM Melatonin, 48 hours",inhibitory effect
same,VEGF-A induced [3H]-thymidine incorporation,[4]; Melatonin 48 hours,completely inhibited
same,effect on chemotactic response towards VEGF-A,HCAEC [5],did not have any significant effect
